The text below walks through data of PMC3938481, “Molecular Cloning of a Novel Glucuronokinase/Putative Pyrophosphorylase from Zebrafish Acting in an UDP-Glucuronic Acid Salvage Pathway” (PLoS ONE, 2014).

For orientation: Km means the substrate concentration at which the rate is half of its maximum. In general, kcat refers to the number of substrate molecules converted per active site and unit of time at saturation.

Test in all cases: coupled HPLC assay with pea UDP-sugar pyrophosphorylase
In data set [1] the target is T1, XtGKUP (Xenopus tropicalis, UniProt A0A6I8PZF0).
T1 construct: gene XB5896631; bifunctional enzyme cloned from tadpole first-strand cDNA; StrepII-tag, made in Nicotiana benthamiana leaves
T1 sequence (A0A6I8PZF0 1-619): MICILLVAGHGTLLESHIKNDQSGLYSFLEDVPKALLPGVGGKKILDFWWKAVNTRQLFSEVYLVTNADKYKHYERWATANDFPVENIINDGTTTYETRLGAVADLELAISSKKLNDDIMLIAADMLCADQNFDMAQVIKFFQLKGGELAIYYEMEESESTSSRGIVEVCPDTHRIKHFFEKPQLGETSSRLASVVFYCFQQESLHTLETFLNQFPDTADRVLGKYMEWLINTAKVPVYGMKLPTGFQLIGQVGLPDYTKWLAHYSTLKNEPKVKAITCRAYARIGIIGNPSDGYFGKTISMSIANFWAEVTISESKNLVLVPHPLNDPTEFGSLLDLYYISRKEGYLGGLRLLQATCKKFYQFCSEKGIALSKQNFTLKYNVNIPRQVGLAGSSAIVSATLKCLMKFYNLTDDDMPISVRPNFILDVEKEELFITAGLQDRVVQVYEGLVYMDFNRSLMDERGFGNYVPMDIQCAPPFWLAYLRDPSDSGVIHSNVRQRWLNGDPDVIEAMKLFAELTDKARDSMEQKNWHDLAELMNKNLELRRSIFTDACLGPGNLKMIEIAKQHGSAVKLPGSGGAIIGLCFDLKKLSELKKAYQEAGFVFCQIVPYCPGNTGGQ
It is filed as biochemical. The settings on record: ATP, UTP, 4 mM MgCl2, 50 mM MOPS-KOH pH 7.5, 35°C.

In data set [2] the target is T2, DrGKUP (Danio rerio, UniProt F6NZ60).
T2 construct: gene gkup; full length, 619 residues, about 70 kDa; StrepII-tag, made in Nicotiana benthamiana leaves
T2 sequence (F6NZ60 1-619): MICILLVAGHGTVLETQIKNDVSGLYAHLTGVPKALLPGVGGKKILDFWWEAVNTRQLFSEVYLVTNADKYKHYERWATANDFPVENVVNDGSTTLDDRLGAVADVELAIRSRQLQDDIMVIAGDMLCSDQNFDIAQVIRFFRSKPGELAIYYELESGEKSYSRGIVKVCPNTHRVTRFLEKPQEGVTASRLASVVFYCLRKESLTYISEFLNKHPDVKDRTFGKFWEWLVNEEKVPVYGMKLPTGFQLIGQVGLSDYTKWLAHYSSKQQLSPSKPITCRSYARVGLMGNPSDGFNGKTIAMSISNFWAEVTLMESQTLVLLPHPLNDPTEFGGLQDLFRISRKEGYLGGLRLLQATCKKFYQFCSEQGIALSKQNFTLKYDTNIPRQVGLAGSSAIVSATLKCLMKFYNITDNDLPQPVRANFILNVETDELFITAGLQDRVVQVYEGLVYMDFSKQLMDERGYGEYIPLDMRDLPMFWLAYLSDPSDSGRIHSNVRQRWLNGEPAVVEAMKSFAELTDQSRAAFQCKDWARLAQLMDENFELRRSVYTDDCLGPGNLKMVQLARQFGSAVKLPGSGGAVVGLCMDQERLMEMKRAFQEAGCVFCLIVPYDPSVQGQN
Format: biochemical. To be noted: UTP, 4 mM MgCl2, 50 mM MOPS-KOH pH 7.5, 35°C.

Substrate in data set [3]: Nc1ncnc2c1ncn2[C@@H]1O[C@H](COP(=O)(O)OP(=O)(O)OP(=O)(O)O)[C@@H](O)[C@H]1O
It is filed as biochemical, Danio rerio. To be noted: GlcA and UTP, 4 mM MgCl2, 50 mM MOPS-KOH pH 7.5, 35°C, ATP 0.01-1.4 mM. From the text: coupled HPLC assay with pea UDP-sugar pyrophosphorylase on DrGK

On to `O=C(O)[C@H]1OC(O)[C@H](O)[C@@H](O)[C@@H]1O` (stereo partly drawn) [D-glucuronic acid], for which the “coupled HPLC assay with pea UDP-sugar pyrophosphorylase” value in data set [1] was “we can confirm the glucuronokinase activity for the Xenopus enzyme”; in data set [2] (ATP) it was “The recombinant full length DrGKUP as well as the DrGK alone catalyzes the phosphorylation of GlcA”.

Consider `Nc1ncnc2c1ncn2[C@@H]1O[C@H](COP(=O)(O)OP(=O)(O)OP(=O)(O)O)[C@@H](O)[C@H]1O` [ATP], for which, in data set [2] (GlcA), the “coupled HPLC assay with pea UDP-sugar pyrophosphorylase” value was “The product is dependent on the presence of ATP, UTP and GlcA”.

B1: DrGK (Danio rerio) (protein)
chain: AHYSSKQQLSPSKPITCRSYARVGLMGNPSDGFNGKTIAMSISNFWAEVTLMESQTLVLLPHPLNDPTEFGGLQDLFRISRKEGYLGGLRLLQATCKKFYQFCSEQGIALSKQNFTLKYDTNIPRQVGLAGSSAIVSATLKCLMKFYNITDNDLPQPVRANFILNVETDELFITAGLQDRVVQVYEGLVYMDFSKQLMDERGYGEYIPLDMRDLPMFWLAYLSDPSDSGRIHSNVRQRWLNGEPAVVEAMKSFAELTDQSRAAFQCKDWARLAQLMDENFELRRSVYTDDCLGPGNLKMVQLARQFGSAVKLPGSGGAVVGLCMDQERLMEMKRAFQEAGCVFCLIVPYDPSVQGQN
notes: C-terminal glucuronokinase (GHMP kinase) domain only, 357 residues, 40 kDa, of the 619-residue DrGKUP (N-terminal ~260-residue pyrophosphorylase domain removed); StrepII-tag; made in Nicotiana benthamiana leaves
Turning to B1, in data set [3], the Km turned out to be 59.3 ± 9.1 µM and the kcat came to 1.3 s⁻¹.
